#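 Growth conditions: 96-well plates. Treatment: test compound, 48 hours, 5 concentrations. Analysis: linear interpolation between bracketing concentrations; unreached endpoints set to highest concentration. TGI marks complete inhibition of growth.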
# Columns and labels:
# Assay in all cases: inhibition of tumour cell growth, NCI panel, 48 h
# [1] = system: UACC-62 melanoma
# [2] = system: SK-MEL-28 melanoma
# [3] = system: SW-620 colon
# [4] = system: HCT-15 colon
# [5] = system: KM20L2 colon
# [6] = system: MALME-3M melanoma
# [7] = system: RPMI-8226 leukemia
# [8] = system: NCI-H23 lung
# [9] = system: COLO 205 colon
# [10] = system: SNB-78 CNS
# [11] = system: HT29 colon
# [12] = system: OVCAR-4 ovarian
# [13] = system: HCC-2998 colon
# [14] = system: HOP-92 NSCLC
# [15] = system: SR leukemia
# [16] = system: RXF 393 renal
# [17] = system: LOX IMVI melanoma
# [18] = system: HOP-62 NSCLC
# [19] = system: U251 CNS
# [20] = system: M19-MEL melanoma
# [21] = system: OVCAR-8 ovarian
# [22] = system: NCI-H460 lung
# [23] = system: IGROV1 ovarian
# [24] = system: SNB-75 CNS
# [25] = system: A549 NSCLC
# [26] = system: SF-268 CNS
# [27] = system: SF-539 CNS
# [28] = system: CAKI-1 renal
# [29] = system: DMS 273 small cell lung
# [30] = system: UACC-257 melanoma
# [31] = system: DMS 114 small cell lung
# [32] = system: OVCAR-5 ovarian
# [33] = system: NCI-H226 lung
# [34] = system: ACHN renal
# [35] = system: TK-10 renal
# [36] = system: 786-0 renal
# [37] = system: SK-OV-3 ovarian
# [38] = system: OVCAR-3 ovarian
# [39] = system: DLD-1 colon
# [40] = system: XF 498 CNS
# [41] = system: SF-295 CNS
# [42] = system: SNB-19 CNS
# [43] = system: NCI-H522 lung
# [44] = system: KM12 colon
# [45] = system: HCT-116 colon
# [46] = system: SK-MEL-5 melanoma
# [47] = system: M14 melanoma
# [48] = system: UO-31 renal
# [49] = system: SN12C renal
# [50] = system: SK-MEL-2 melanoma
# [51] = system: LXFL 529 NSCLC
# [52] = system: K-562 leukemia
# [53] = system: MOLT-4 leukemia
# [54] = system: CCRF-CEM leukemia
# [55] = system: EKVX NSCLC
# [56] = system: HL-60(TB) leukemia
# [57] = system: A498 renal
# [58] = system: DU-145 prostate
# [59] = system: HS 578T breast
# [60] = system: MDA-MB-231 breast
# [61] = system: HOP-18 NSCLC
# [62] = system: MDA-N
# [63] = system: NCI/ADR-RES ovarian
# [64] = system: PC-3 prostate
# [65] = system: MDA-MB-435
# [66] = system: BT-549 breast
# [67] = system: MCF7 breast
compound,measurement,setting,value
CC(c1ccccc1)N1O[C@]12CC[C@@]1(C)C(CCCC13OCCO3)C2 (stereo not given in full),TGI,[1],35.4 µM
same,TGI,[2],> 100 µM
same,TGI,[3],34.4 µM
same,TGI,[4],46.2 µM
same,TGI,[5],> 100 µM
same,TGI,[6],83.9 µM
same,TGI,[7],> 100 µM
same,TGI,[8],> 100 µM
same,TGI,[9],32.5 µM
same,TGI,[10],40.9 µM
same,TGI,[11],44.3 µM
same,TGI,[12],33.2 µM
same,TGI,[13],> 100 µM
same,TGI,[14],23.7 µM
same,TGI,[15],40.4 µM
same,TGI,[16],54.5 µM
same,TGI,[17],26.2 µM
same,TGI,[18],> 100 µM
same,TGI,[19],37.6 µM
same,TGI,[20],51 µM
same,TGI,[21],37.2 µM
same,TGI,[22],38.1 µM
same,TGI,[23],12.1 µM
same,TGI,[24],39 µM
same,TGI,[25],43 µM
same,TGI,[26],> 100 µM
same,TGI,[27],> 100 µM
same,TGI,[28],37.2 µM
same,TGI,[29],36 µM
same,TGI,[30],43.4 µM
same,TGI,[31],27.4 µM
same,TGI,[32],> 100 µM
same,TGI,[33],> 100 µM
same,TGI,[34],30.3 µM
same,TGI,[35],32.2 µM
same,TGI,[36],36.5 µM
same,TGI,[37],> 100 µM
same,TGI,[38],34.4 µM
same,TGI,[39],32.7 µM
same,TGI,[40],44.3 µM
same,TGI,[41],44.3 µM
same,TGI,[42],> 100 µM
same,TGI,[43],32 µM
same,TGI,[44],43.2 µM
same,TGI,[45],29.6 µM
same,TGI,[46],93.1 µM
same,TGI,[47],32.1 µM
same,TGI,[48],31.9 µM
same,TGI,[49],75.6 µM
COc1cccc(/C=C(\NC(C)=O)c2nc3ccc(Cl)cc3[nH]2)c1,TGI,[1],> 100 µM
same,TGI,[2],> 100 µM
same,TGI,[3],> 100 µM
same,TGI,[4],> 100 µM
same,TGI,[5],> 100 µM
same,TGI,[6],> 100 µM
same,TGI,[8],> 100 µM
same,TGI,[9],> 100 µM
same,TGI,[10],> 100 µM
same,TGI,[11],> 100 µM
same,TGI,[12],> 100 µM
same,TGI,[13],> 100 µM
same,TGI,[50],> 100 µM
same,TGI,[14],> 100 µM
same,TGI,[15],> 100 µM
same,TGI,[16],> 100 µM
same,TGI,[51],> 100 µM
same,TGI,[19],> 100 µM
same,TGI,[20],> 100 µM
same,TGI,[52],> 100 µM
same,TGI,[21],> 100 µM
same,TGI,[23],> 100 µM
same,TGI,[25],> 100 µM
same,TGI,[53],> 100 µM
same,TGI,[26],> 100 µM
same,TGI,[27],> 100 µM
same,TGI,[28],> 100 µM
same,TGI,[31],> 100 µM
same,TGI,[32],> 100 µM
same,TGI,[34],> 100 µM
same,TGI,[35],> 100 µM
same,TGI,[36],> 100 µM
same,TGI,[37],> 100 µM
same,TGI,[54],> 100 µM
same,TGI,[55],> 100 µM
same,TGI,[38],> 100 µM
same,TGI,[39],> 100 µM
same,TGI,[40],> 100 µM
same,TGI,[41],> 100 µM
same,TGI,[42],> 100 µM
same,TGI,[43],> 100 µM
same,TGI,[44],> 100 µM
same,TGI,[46],> 100 µM
same,TGI,[47],> 100 µM
same,TGI,[48],> 100 µM
same,TGI,[49],> 100 µM
COc1ccc(C(=O)O)c(Br)c1OCc1ccccc1,TGI,[1],> 100 µM
same,TGI,[2],> 100 µM
same,TGI,[3],> 100 µM
same,TGI,[4],> 100 µM
same,TGI,[5],> 100 µM
same,TGI,[7],> 100 µM
same,TGI,[8],> 100 µM
same,TGI,[9],> 100 µM
same,TGI,[10],> 100 µM
same,TGI,[11],> 100 µM
same,TGI,[12],> 100 µM
same,TGI,[50],> 100 µM
same,TGI,[14],> 100 µM
same,TGI,[16],> 100 µM
same,TGI,[51],> 100 µM
same,TGI,[17],> 100 µM
same,TGI,[18],> 100 µM
same,TGI,[19],> 100 µM
same,TGI,[20],> 100 µM
same,TGI,[52],> 100 µM
same,TGI,[21],> 100 µM
same,TGI,[22],> 100 µM
same,TGI,[23],> 100 µM
same,TGI,[24],> 100 µM
same,TGI,[56],> 100 µM
same,TGI,[25],> 100 µM
same,TGI,[53],> 100 µM
same,TGI,[26],> 100 µM
same,TGI,[27],> 100 µM
same,TGI,[29],> 100 µM
same,TGI,[31],> 100 µM
same,TGI,[32],> 100 µM
same,TGI,[33],> 100 µM
same,TGI,[34],> 100 µM
same,TGI,[35],> 100 µM
same,TGI,[36],> 100 µM
same,TGI,[37],> 100 µM
same,TGI,[54],> 100 µM
same,TGI,[57],> 100 µM
same,TGI,[55],> 100 µM
same,TGI,[38],> 100 µM
same,TGI,[39],> 100 µM
same,TGI,[40],> 100 µM
same,TGI,[41],> 100 µM
same,TGI,[42],> 100 µM
same,TGI,[43],> 100 µM
same,TGI,[44],> 100 µM
same,TGI,[45],> 100 µM
same,TGI,[46],> 100 µM
same,TGI,[47],> 100 µM
same,TGI,[48],> 100 µM
same,TGI,[49],> 100 µM
CC(C)(C)C1=Nc2c(Br)cc(C(C)(C)C)cc2C(C(F)(F)F)(C(F)(F)F)O1,TGI,[1],> 100 µM
same,TGI,[2],> 100 µM
same,TGI,[3],> 100 µM
same,TGI,[4],> 100 µM
same,TGI,[5],> 100 µM
same,TGI,[6],> 100 µM
same,TGI,[7],66.3 µM
same,TGI,[8],> 100 µM
same,TGI,[9],> 100 µM
same,TGI,[10],> 100 µM
same,TGI,[11],> 100 µM
same,TGI,[12],> 100 µM
same,TGI,[13],65.1 µM
same,TGI,[50],> 100 µM
same,TGI,[15],> 100 µM
same,TGI,[16],43.5 µM
same,TGI,[51],> 100 µM
same,TGI,[17],31.3 µM
same,TGI,[18],> 100 µM
same,TGI,[19],44.7 µM
same,TGI,[20],> 100 µM
same,TGI,[52],> 100 µM
same,TGI,[21],> 100 µM
same,TGI,[22],> 100 µM
same,TGI,[23],> 100 µM
same,TGI,[24],> 100 µM
same,TGI,[56],47.4 µM
same,TGI,[25],> 100 µM
same,TGI,[53],> 100 µM
same,TGI,[27],> 100 µM
same,TGI,[29],> 100 µM
same,TGI,[30],> 100 µM
same,TGI,[31],86.3 µM
same,TGI,[32],> 100 µM
same,TGI,[34],> 100 µM
same,TGI,[35],> 100 µM
same,TGI,[36],> 100 µM
same,TGI,[37],> 100 µM
same,TGI,[54],> 100 µM
same,TGI,[55],> 100 µM
same,TGI,[38],37 µM
same,TGI,[39],> 100 µM
same,TGI,[40],59.4 µM
same,TGI,[41],> 100 µM
same,TGI,[42],> 100 µM
same,TGI,[43],> 100 µM
same,TGI,[44],> 100 µM
same,TGI,[45],> 100 µM
same,TGI,[46],> 100 µM
same,TGI,[47],> 100 µM
same,TGI,[48],> 100 µM
same,TGI,[49],> 100 µM
COc1ccc(-c2nc(N)n(C)c2SSc2c(-c3ccc(OC)cc3)nc(N)n2C)cc1,TGI,[1],10 µM
same,TGI,[2],10.2 µM
same,TGI,[3],5.09 µM
same,TGI,[4],8.73 µM
same,TGI,[5],30.9 µM
same,TGI,[6],22.2 µM
same,TGI,[7],7.46 µM
same,TGI,[8],17.8 µM
same,TGI,[9],4.76 µM
same,TGI,[11],28.5 µM
same,TGI,[12],15.9 µM
same,TGI,[13],31.8 µM
same,TGI,[58],31.4 µM
same,TGI,[59],29.7 µM
same,TGI,[60],19.7 µM
same,TGI,[50],29.5 µM
same,TGI,[14],6.21 µM
same,TGI,[61],17.8 µM
same,TGI,[15],5.48 µM
same,TGI,[16],6.63 µM
same,TGI,[51],3.4 µM
same,TGI,[17],4.22 µM
same,TGI,[18],32.1 µM
same,TGI,[19],26.2 µM
same,TGI,[62],6 µM
same,TGI,[20],4.67 µM
same,TGI,[63],35.1 µM
same,TGI,[52],15.5 µM
same,TGI,[21],16.3 µM
same,TGI,[22],42.5 µM
same,TGI,[23],29.4 µM
same,TGI,[24],24.8 µM
same,TGI,[56],14.1 µM
same,TGI,[25],45.4 µM
same,TGI,[53],5.1 µM
same,TGI,[26],33.7 µM
same,TGI,[27],13.4 µM
same,TGI,[28],24.6 µM
same,TGI,[64],18.2 µM
same,TGI,[29],13.4 µM
same,TGI,[65],13.9 µM
same,TGI,[30],14.5 µM
same,TGI,[31],4.61 µM
same,TGI,[66],5.54 µM
same,TGI,[32],14.5 µM
same,TGI,[33],37.3 µM
same,TGI,[67],23 µM
same,TGI,[34],8.3 µM
same,TGI,[35],27.6 µM
same,TGI,[36],29.2 µM
same,TGI,[37],32.6 µM
same,TGI,[54],11.9 µM
same,TGI,[57],35.7 µM
same,TGI,[55],44.3 µM
same,TGI,[38],21.2 µM
same,TGI,[39],15.3 µM
same,TGI,[40],4.92 µM
same,TGI,[41],25.5 µM
same,TGI,[42],27.2 µM
same,TGI,[43],3.57 µM
same,TGI,[44],26.7 µM
same,TGI,[45],7.49 µM
same,TGI,[46],4.15 µM
same,TGI,[47],4.87 µM
same,TGI,[48],11.9 µM
same,TGI,[49],25.5 µM

# — PubChem BioAssay (NCI)
